# Molecular target: Human LDHA (Homo sapiens (Human), UniProt P00338)
# Assay: human LDHA primary biochemical assay (resazurin/diaphorase coupled, fluorescence)
# Settings: LDHA inhibitory activity, assay of Example 1; activity level classes
# Excerpt: Test compounds were placed in a Greiner Bio-One (Monroe, N.C.) 1536-well black solid bottom assay plate. 200 millimolar (mM) Tris HCl, pH 7.4, 100 micromolar […] EDTA and 0.01% TWEEN-20™, final concentration, was used as the assay buffer. The LDHA reagent was 2 nanomolar (nM) Human LDHA (Meridian Life Science, Inc., Memphis, Tenn.), final concentration, in assay buffer.
row,Structure (SMILES),IC50
1,"CCOC(=O)OC(C)OC(=O)c1csc(-n2nc(-c3ccc(F)c(F)c3)cc2OC(C)OC(=O)OCC)n1 (stereo not drawn) [Compound 98, 1-((ethoxycarbonyl)oxy)ethyl 2-(3-(3,4-difluorophenyl)-5-(1-((ethoxycarbonyl)oxy)ethoxy)-1H-pyrazol-1-yl)thiazole-4-carboxylate]",> 57 µM
2,"O=C(O)c1csc(-n2nc(-c3c(F)cccc3F)cc2O)n1 [Compound 100, 2-(3-(2,6-difluorophenyl)-5-hydroxy-1H-pyrazol-1-yl)thiazole-4-carboxylic acid]",> 57 µM
3,"O=C(O)c1csc(-n2nc(-c3cc(F)ccc3F)cc2O)n1 [Compound 102, 2-(3-(2,5-difluorophenyl)-5-hydroxy-1H-pyrazol-1-yl)thiazole-4-carboxylic acid]",> 57 µM
4,"CS(=O)(=O)Nc1cc(-c2cc(O)n(-c3nc(C(=O)O)cs3)n2)ccc1F [Compound 103, 2-(3-(4-fluoro-3-(methylsulfonamido)phenyl)-5-hydroxy-1H-pyrazol-1-yl)thiazole-4-carboxylic acid]",> 57 µM
5,"O=C(O)c1csc(-n2nc(-c3ccc(F)c(Cc4ccccc4)c3)cc2O)n1 [Compound 104, 2-(3-(3-benzyl-4-fluorophenyl)-5-hydroxy-1H-pyrazol-1-yl)thiazole-4-carboxylic acid]",> 57 µM
6,"CCOC(=O)OC(C)OC(=O)c1csc(-n2nc(-c3ccc(F)c(F)c3)cc2O)n1 (stereo not drawn) [Compound 105, 1-((ethoxycarbonyl)oxy)ethyl 2-(3-(3,4-difluorophenyl)-5-hydroxy-1H-pyrazol-1-yl)thiazole-4-carboxylate]",> 57 µM
7,"O=C(OCCN1CCOCC1)c1csc(-n2nc(-c3ccc(F)c(F)c3)cc2O)n1 [Compound 106, 2-morpholinoethyl 2-(3-(3,4-difluorophenyl)-5-hydroxy-1H-pyrazol-1-yl)thiazole-4-carboxylate]",> 57 µM
8,"CN(C)C(=O)Oc1cc(-c2ccc(F)c(F)c2)nn1-c1nc(C(=O)Oc2ccc3c(c2)CCC3)cs1 [Compound 107, 2,3-dihydro-1H-inden-5-yl 2-(3-(3,4-difluorophenyl)-5-((dimethylcarbamoyl)oxy)-1H-pyrazol-1-yl)thiazole-4-carboxylate]",> 57 µM
9,"O=C(Oc1ccc2c(c1)CCC2)c1csc(-n2nc(-c3ccc(F)c(F)c3)cc2O)n1 [Compound 108, 2,3-dihydro-1H-inden-5-yl 2-(3-(3,4-difluorophenyl)-5-hydroxy-1H-pyrazol-1-yl)thiazole-4-carboxylate]",> 57 µM
10,"CC(C)C(=O)OCOC(=O)c1csc(-n2nc(-c3ccc(F)c(F)c3)cc2O)n1 [Compound 109, (isobutyryloxy)methyl 2-(3-(3,4-difluorophenyl)-5-hydroxy-1H-pyrazol-1-yl)thiazole-4-carboxylate]",> 57 µM
11,"O=C(O)c1csc(-n2nc(-c3ccc(F)c(S(=O)(=O)NCc4ccccc4)c3)cc2O)n1 [Compound 110, 2-(3-(3-(N-benzylsulfamoyl)-4-fluorophenyl)-5-hydroxy-1H-pyrazol-1-yl)thiazole-4-carboxylic acid]",> 57 µM
12,"O=C(O)c1csc(-n2nc(-c3ccc(NS(=O)(=O)C4CC4)c(F)c3)cc2O)n1 [Compound 111, 2-(3-(4-(cyclopropanesulfonamido)-3-fluorophenyl)-5-hydroxy-1H-pyrazol-1-yl)thiazole-4-carboxylic acid]",> 57 µM
13,"O=C(O)c1csc(-n2nc(-c3ccc(CCNS(=O)(=O)C4CC4)c(F)c3)cc2O)n1 [Compound 112, 2-(3-(4-(2-(cyclopropanesulfonamido)ethyl)-3-fluorophenyl)-5-hydroxy-1H-pyrazol-1-yl)thiazole-4-carboxylic acid]",> 57 µM
14,"O=C(O)c1csc(-n2nc(-c3ccc(F)c(F)c3)c(Cc3ccccc3)c2O)n1 [Compound 113, 2-(4-benzyl-3-(3,4-difluorophenyl)-5-hydroxy-1H-pyrazol-1-yl)thiazole-4-carboxylic acid]",> 57 µM
15,"CNS(=O)(=O)c1cc(-c2cc(O)n(-c3nc(C(=O)O)cs3)n2)ccc1F [Compound 114, 2-(3-(4-fluoro-3-(N-methylsulfamoyl)phenyl)-5-hydroxy-1H-pyrazol-1-yl)thiazole-4-carboxylic acid]",> 57 µM
16,"COC(=O)c1csc2c1c(=O)[nH]c1cc(-c3ccc(F)c(F)c3)nn12 [Compound 115, methyl 2-(3,4-difluorophenyl)-5-oxo-4,5-dihydropyrazolo[1,5-a]thieno[3,2-e]pyrimidine-6-carboxylate]",> 57 µM
17,"O=C(O)c1csc2c1c(=O)[nH]c1cc(-c3ccc(F)c(F)c3)nn12 [Compound 116, 2-(3,4-difluorophenyl)-5-oxo-4,5-dihydropyrazolo[1,5-a]thieno[3,2-e]pyrimidine-6-carboxylic acid]",> 57 µM

row,Structure (SMILES),IC50
1,"CC(C)(C)OC(=O)c1csc(-n2nc(-c3ccc(F)c(F)c3)c(Cc3cccc(S(N)(=O)=O)c3)c2O)n1 [Compound 117, tert-butyl 2-(3-(3,4-difluorophenyl)-5-hydroxy-4-(3-sulfamoylbenzyl)-1H-pyrazol-1-yl)thiazole-4-carboxylate]",> 57 µM
2,"CC(C)(C)OC(=O)c1csc(-n2nc(-c3ccc(F)c(F)c3)c(-c3ccccc3)c2O)n1 [Compound 118, tert-butyl 2-(3-(3,4-difluorophenyl)-5-hydroxy-4-phenyl-1H-pyrazol-1-yl)thiazole-4-carboxylate]",> 57 µM
3,"O=C(O)c1csc(-n2nc(-c3ccc(F)c(F)c3)c3cccc(O)c32)n1 [Compound 119, 2-(3-(3,4-difluorophenyl)-7-hydroxy-1H-indazol-1-yl)thiazole-4-carboxylic acid]",> 57 µM
4,"CCOC(=O)c1csc(-n2nc(-c3ccc(F)c(F)c3)cc2O)n1 [Compound 121, ethyl 2-(3-(3,4-difluorophenyl)-5-hydroxy-1H-pyrazol-1-yl)thiazole-4-carboxylate]",> 57 µM
5,"CS(=O)(=O)NCCc1cc(-c2cc(O)n(-c3nc(C(=O)O)cs3)n2)ccc1F [Compound 122, 2-(3-(4-fluoro-3-(2-(methylsulfonamido)ethyl)phenyl)-5-hydroxy-1H-pyrazol-1-yl)thiazole-4-carboxylic acid]",> 57 µM
6,"CNS(=O)(=O)c1ccc(Cc2c(-c3cccc(-c4ccccc4)c3)nn(-c3nc(C(=O)O)cs3)c2O)cc1 [Compound 124, 2-(3-([1,1′-biphenyl]-3-yl)-5-hydroxy-4-(4-(N-methylsulfamoyl)benzyl)-1H-pyrazol-1-yl)thiazole-4-carboxylic acid]",> 57 µM
7,"O=C(O)c1csc(-n2cc(-c3ccc(F)c(F)c3)c3cccc(O)c32)n1 [Compound 125, 2-(3-(3,4-difluorophenyl)-7-hydroxy-1H-indol-1-yl)thiazole-4-carboxylic acid]",> 57 µM
8,"CC(=O)Nc1c(-c2ccccc2)nn(-c2nc(C(=O)O)cs2)c1O [Compound 126, 2-(4-acetamido-5-hydroxy-3-phenyl-1H-pyrazol-1-yl)thiazole-4-carboxylic acid]",> 57 µM
9,"NC(=O)c1csc(-n2nc(-c3ccccc3)c(Cc3ccc(S(N)(=O)=O)cc3)c2C(F)(F)F)n1 [Compound 127, 2-(3-phenyl-4-(4-sulfamoylbenzyl)-5-(trifluoromethyl)-1H-pyrazol-1-yl)thiazole-4-carboxamide]",> 57 µM
10,"Nc1c(Cc2ccc(S(N)(=O)=O)cc2)c(-c2ccccc2)nn1-c1ccc(=O)[nH]n1 [Compound 128, 4-((5-amino-1-(6-oxo-1,6-dihydropyridazin-3-yl)-3-phenyl-1H-pyrazol-4-yl)methyl)benzenesulfonamide]",> 57 µM
11,"CCOC(=O)c1cccc(-n2nc(-c3ccccc3)c(Cc3ccc(S(N)(=O)=O)cc3)c2N)c1 [Compound 129, ethyl 3-(5-amino-3-phenyl-4-(4-sulfamoylbenzyl)-1H-pyrazol-1-yl)benzoate]",> 57 µM
12,"Nc1c(Cc2ccc(S(N)(=O)=O)cc2)c(-c2ccccc2)nn1-c1cccc(C(=O)O)c1 [Compound 130, 3-(5-amino-3-phenyl-4-(4-sulfamoylbenzyl)-1H-pyrazol-1-yl)benzoic acid]",> 57 µM
13,"Nc1c(Cc2ccc(S(N)(=O)=O)cc2)c(-c2ccccc2)nn1-c1nc(CO)cs1 [Compound 131, 4-((5-amino-1-(4-(hydroxymethyl)thiazol-2-yl)-3-phenyl-1H-pyrazol-4-yl)methyl)benzenesulfonamide]",> 57 µM
14,"NS(=O)(=O)c1ccc(Cc2c(-c3ccccc3)nn(-c3nc(CO)cs3)c2Cc2nnn[nH]2)cc1 [Compound 132, 4-((5-((1H-tetrazol-5-yl)methyl)-1-(4-(hydroxymethyl)thiazol-2-yl)-3-phenyl-1H-pyrazol-4-yl)methyl)benzenesulfonamide]",> 57 µM
15,COC(=O)c1csc(-n2nc(-c3ccccc3)c(Cc3ccc(S(N)(=O)=O)cc3)c2Cc2nnn[nH]2)n1 [Compound 133],> 57 µM
16,"CCOC(=O)c1csc(-n2nc(-c3ccccc3)c(Cc3ccc(S(N)(=O)=O)cc3)c2Cc2nnn[nH]2)n1 [Compound 134, ethyl 2-(5-((1H-tetrazol-5-yl)methyl)-3-phenyl-4-(4-sulfamoylbenzyl)-1H-pyrazol-1-yl)thiazole-4-carboxylate]",> 57 µM
17,"CCOC(=O)c1csc(-n2nc(-c3ccccc3)c(Cc3ccc(S(N)(=O)=O)cc3)c2CC#N)n1 [Compound 135, ethyl 2-(5-(cyanomethyl)-3-phenyl-4-(4-sulfamoylbenzyl)-1H-pyrazol-1-yl)thiazole-4-carboxylate]",> 57 µM

# Same assay, conditions: read-out: Inhibitory activity IC50
row,Structure (SMILES),IC50
1,"O=C(O)c1csc(-n2nc(-c3ccc(F)cc3F)cc2O)n1 [Compound 97, 2-(3-(2,4-difluorophenyl)-5-hydroxy-1H-pyrazol-1-yl)thiazole-4-carboxylic acid]",> 57 µM
2,"CCOC(=O)c1csc(-n2nc(-c3ccc(F)c(F)c3)c(Cc3ccc(S(N)(=O)=O)cc3)c2N)n1 [Compound 123, ethyl 2-(5-amino-3-(3,4-difluorophenyl)-4-(4-sulfamoylbenzyl)-1H-pyrazol-1-yl)thiazole-4-carboxylate]",1 to 57 µM

# From US10961200B2, “Small molecule inhibitors of lactate dehydrogenase and methods of use thereof” (THE UNITED STATES OF AMERICA, AS REPRESENTED BY THE …, priority 2014, dated 2021)
